Data as given in patent US9233951B2, “Heterocyclic compounds as pesticides” (Bayer Intellectual Property GmbH, priority 2010, dated 2016).
Where two headings read alike, the source gives them in different places.

Experiments:
physchem = type: physicochemical
Protocol: 1 Method Description for Determination of the logP values and Mass Detection
Eluents for determination in the acidic range (pH 3.4): • Eluent A: acetonitrile+1 ml formic acid/l.
The λmax values were determined in the maxima of the chromatographic signals using the UV spectra from 200 nm to 400 nm. The mass was detected (M^+, m/z) by means of an Agilent MSD mass spectrometer.

[1] = test system: green peach aphid (Myzus persicae); assay: Myzus persicae test (spray treatment); type: in vivo; conditions: foliar, 144 h, read-out: efficacy in %
Protocol: Myzus persicae Test (Spray Treatment)
• Solvent: 78 parts by weight of acetone • 1.5 parts by weight of dimethylformamide • Emulsifier: 0.5 part by weight of alkylaryl polyglycol ether
To prepare an appropriate active ingredient preparation, 1 part by weight of active ingredient is mixed with the stated amounts of solvent and emulsifier, and the concentrate is diluted with emulsifier-containing water to the desired concentration. Discs of Chinese cabbage (Brassica pekinensis) infested by all stages of the green peach aphid (Myzus persicae) are sprayed with an active ingredient preparation of the desired concentration.
After 6 days, the efficacy in % is determined. 100% means that all of the aphids have been killed; 0% means that none of the aphids have been killed.

[2] = reverse-phase HPLC column (C 18), pH 3.4, HPLC, reverse-phase C 18, acidic range pH 3.4, 55° C., table of compounds, read-out: logP (HCO2H)
[3] = application rate 500 g/ha, Chinese cabbage leaf discs sprayed, after 6 days, 100% = all aphids killed
[4] = reverse-phase HPLC column (C 18), pH 3.4, HPLC-MS value printed in the preparation example text, acidic range pH 3.4, read-out: logP (HCOOH)
[5] = pH 3.4, HPLC-MS value printed in the preparation example text, acidic range pH 3.4, read-out: logP (HCOOH)

SMILES | chromatographic logP (physchem; [2]) | pest or weed control at 500 g/ha [1, 3] [%] | chromatographic logP (physchem; [4]) | also measured
CCCNC(=O)c1ccc(-c2cccnc2)o1 [Compound 32] | 0.83 | 100 | – | –
CC(F)(F)CNC(=O)c1cc(-c2cccnc2)ns1 [Compound 38, N-(2,2-Difluoropropyl)-3-(pyridin-3-yl)-1,2-thiazole-5-carboxamide] | 1.33 | – | 1.33 | pest or weed control at 500 g/ha ([1]; in Brassica rapa): 100%
O=C(NCC=CCl)c1ccc(-c2cccnc2)o1 [Compound 18] | 1.27 | 90 | – | logP (HCO2H) (physchem; HPLC, reverse-phase C 18, acidic range pH 3.4, 55° C., table of compounds): 1.33
O=C(c1ccc(-c2cccnc2)o1)N1CCCC1 [Compound 10] | 1.06 | – | – | –
O=C(NCC1CC1)c1ccc(-c2cccnc2)o1 [Compound 30] | 1.39 | 100 | – | –
CN(C)C(=O)C1CN=C(c2cncnc2)S1 (centres unmarked) [Compound 46] | 0.99 | – | – | –
O=C(NCC1CCCCC1)c1ccc(-c2cccnc2)o1 [Compound 15] | 2.02 | – | – | –
O=C(O)c1cn(-c2cccnc2)nn1 [1-(Pyridin-3-yl)-1H-1,2,3-triazole-4-carboxylic acid] | – | – | -0.03 | –
CSCCNC(=O)c1nnc(-c2cccnc2)o1 [Compound 34, N-(2-Methylmercaptoethyl)-5-(pyridin-3-yl)-1,3,4-oxazole-2-carboxamide] | 1.13 | – | 1.13 | –
O=C(O)c1cnc(-c2cccnc2)o1 [2-(Pyridin-3-yl)-1,3-oxazole-5-carboxylic acid] | – | – | -0.06 | –
O=C(O)c1csc(-c2cccnc2)n1 [2-(Pyridin-3-yl)-1,3-thiazole-4-carboxylic acid] | – | – | 0.35 | –
O=C(O)c1cc(-c2ccc(Cl)nc2)ns1 [3-(6-Chloropyridin-3-yl)-1,2-thiazole-5-carboxylic acid] | – | – | 1.56 | –
Cc1cc(-c2cccnc2)sc1C(=O)O [3-Methyl-5-(pyridin-3-yl)thiophene-2-carboxylic acid] | – | – | 1.96 | –
Cc1nc(-c2cccnc2)oc1C(=O)NCC(F)(F)F [Compound 4, 4-Methyl-2-(pyridin-3-yl)-N-(2,2,2-trifluoroethyl)-1,3-oxazole-5-carboxamide] | 1.46 | – | 1.46 | –
O=C(NCc1ncccn1)c1cc(-c2cccnc2)no1 [Compound 3] | 0.62 | 100 | – | –
Cc1cc(-c2cccnc2)sc1C(=O)NCC(F)(F)F [Compound 5, 3-Methyl-5-(pyridin-3-yl)-N-(2,2,2-trifluoroethyl)thiophene-2-carboxamide] | 1.62 | – | 1.62 | –
O=C(NCC(F)(F)F)c1coc(-c2cccnc2)c1 [Compound 12, 5-(Pyridin-3-yl)-N-(2,2,2-trifluoroethyl)furan-3-carboxamide] | 1.13 | 90 | 1.13 | –
O=C(O)C1CN=C(c2cncnc2)S1 (racemic) [(R,S)-4,5-Dihydro-2-(5-pyrimidinyl)-1,3-thiazole-5-carboxylic acid] | – | – | 0.3 | –
CSC[C@H](C)NC(=O)c1nnc(-c2cccnc2)o1 [Compound 35] | 1.39 | 80 | – | –
Cc1nc(-c2cccnc2)oc1C(=O)O [4-Methyl-2-(pyridin-3-yl)-1,3-oxazole-5-carboxylic acid] | – | – | 0.56 | –
O=C(NCC(F)(F)F)c1cc(-c2cccnc2)no1 [Compound 40] | 1.33 | – | – | –
O=C(NCc1ncccn1)C1CN=C(c2cncnc2)S1 (racemic) [Compound 44, (R,S)-4,5-Dihydro-N-(pyrimidin-2-ylmethyl)-2-(5-pyrimidinyl)-1,3-thiazole-5-carboxamide] | 0.9 | 80 | 0.9 | –
CCOC(=O)c1cc(-c2ccc(Cl)nc2)ns1 [Ethyl 3-(6-chloropyridin-3-yl)-1,2-thiazole-5-carboxylate] | – | – | 3.33 | –
CNC(=O)c1ccc(-c2cccnc2)o1 [Compound 31, N-Methyl-5-(pyridin-3-yl)furan-2-carboxamide] | 0.42 | – | 0.42 | pest or weed control at 500 g/ha ([1]; in Brassica rapa): 100%
COC(=O)c1ccn(-c2cccnc2)c1 [Methyl 1-(pyridin-3-yl)pyrrole-3-carboxylate] | – | – | 1.26 | –
O=C(O)C1CN=C(c2cccnc2)S1 (racemic) [(R,S)-4,5-Dihydro-2-(3-pyridinyl)-1,3-thiazole-5-carboxylic acid] | – | – | – | chromatographic logP (physchem; [5]): 0.75

SMILES | chromatographic logP (physchem; [2]) | pest or weed control at 500 g/ha [1, 3] [%] | chromatographic logP (physchem; [4]) | also measured
O=C(NCC(F)(F)F)C1CN=C(c2cncnc2)S1 (centres unmarked) [Compound 45] | 1.4 | 100 | – | –
CCOC(=O)c1cn(-c2cccnc2)nn1 [Ethyl 1-(pyridin-3-yl)-1H-1,2,3-triazole-4-carboxylate] | – | – | 1.15 | –
O=C(NCC(F)(F)F)C1CN=C(c2cccnc2)S1 (centres unmarked) [Compound 42] | – | – | – | chromatographic logP (physchem; pH 3.4, logP (HCO2H)): 0.54
CCOC(=O)c1ncn(-c2cccnc2)c1C [Ethyl 5-methyl-1-(pyridin-3-yl)-1H-imidazole-4-carboxylate] | – | – | 1.03 | –
C#CCNC(=O)c1ccc(-c2cccnc2)o1 [Compound 22] | 0.72 | 100 | – | –
CN(CC#N)C(=O)c1ccc(-c2cccnc2)o1 [Compound 16] | 0.72 | 90 | – | –
CN(C)C(=O)c1cnc(-c2cccnc2)o1 [Compound 25, N,N-Dimethyl-2-(pyridin-3-yl)-1,3-oxazole-5-carboxamide] | 1.43 | 90 | 1.43 | –
O=C(NCC(F)F)c1csc(-c2cccnc2)n1 [Compound 33, N-(2,2-Difluoroethyl)-2-(pyridin-3-yl)-1,3-thiazole-4-carboxamide] | – | – | – | chromatographic logP (physchem; pH 3.4, HPLC, reverse-phase C 18, acidic range pH 3.4, 55° C., table of compounds, read-out: logP (HCO2H)): 1.22; chromatographic logP (physchem; [5]): 1.18; pest or weed control at 500 g/ha ([1]; in Brassica rapa): 100%
N#CCNC(=O)c1csc(-c2cccnc2)n1 [Compound 14] | 0.8 | 80 | – | –
CCOC(=O)c1nnc(-c2cccnc2)o1 [Ethyl 5-(pyridin-3-yl)-1,3,4-oxadiazole-2-carboxylate] | – | – | 1.21 | –
CN(C)C(=O)c1ccc(-c2cccnc2)o1 [Compound 7] | 0.51 | 100 | – | –
NC(=O)c1csc(-c2cccnc2)n1 [Compound 28] | – | 100 | – | –
CN(C)C(=O)c1cc(-c2cccnc2)no1 [Compound 2, N,N-Dimethyl-3-(pyridin-3-yl)-1,2-oxazole-5-carboxamide] | 0.78 | 100 | 0.78 | –
CCN(C)C(=O)c1ccc(-c2cccnc2)o1 [Compound 11] | 1 | 100 | – | –
O=C(NCC(F)(F)F)c1ccn(-c2cccnc2)c1 [Compound 36, 1-(Pyridin-3-yl)-N-(2,2,2-trifluoroethyl)pyrrole-3-carboxamide] | 1.24 | – | 1.24 | pest or weed control at 500 g/ha ([1]; in Brassica rapa): 90%
O=C(NCC(F)(F)Br)c1ccc(-c2cccnc2)o1 [Compound 26] | 1.49 | – | – | –
CN(C)C(=O)C1CN=C(c2cccnc2)S1 (racemic) [Compound 41, (R,S)-4,5-Dihydro-N,N-dimethyl-2-(3-pyridinyl)-1,3-thiazole-5-carboxamide] | – | 100 | – | –
Cc1c(C(=O)NCC(F)(F)F)ncn1-c1cccnc1 [Compound 50, 5-Methyl-1-(pyridin-3-yl)-N-(2,2,2-trifluoroethyl)-1H-imidazole-4-carboxamide] | 1.28 | – | 1.28 | –
Cc1nc(C(=O)NCC(F)(F)F)sc1-c1cccnc1 [Compound 47, 4-Methyl-5-(3-pyridyl)-N-(2,2,2-trifluoroethyl)-1,3-thiazole-2-carboxamide] | 1.74 | – | 1.74 | –
O=C(NCC(F)(F)F)c1nnc(-c2cccnc2)o1 [Compound 49, 5-(Pyridin-3-yl)-N-(2,2,2-trifluoroethyl)-1,3,4-oxadiazole-2-carboxamide] | 1.21 | – | 1.21 | –
CCOC(=O)c1nc(C)c(-c2cccnc2)s1 [Ethyl 4-methyl-5-(3-pyridinyl)-1,3-thiazole-2-carboxylate] | – | – | 0.45 | –
O=C(NCC(F)(F)F)n1cc(-c2cccnc2)cn1 [Compound 48] | – | – | 0.95 | –
O=C(O)c1coc(-c2cccnc2)c1 [5-(Pyridin-3-yl)furan-3-carboxylic acid] | – | – | 0.07 | –
O=C(NCC(F)(F)F)c1cc(-c2cccnc2)on1 [Compound 39, 5-(Pyridin-3-yl)-N-(2,2,2-trifluoroethyl)-1,2-oxazole-3-carboxamide] | 1.51 | – | 1.51 | –
CC(F)(F)CNC(=O)c1cc(-c2ccc(Cl)nc2)ns1 [3-(6-Chloropyridin-3-yl)-N-(2,2-difluoropropyl)-1,2-thiazole-5-carboxamide] | – | – | 2.45 | –
